Source: paper PMC7970304, “The Effects of Apelin and Elabela Ligands on Apelin Receptor Distinct Signaling Profiles” (Frontiers in Pharmacology, 2021)

Legend:
APJ (Apelin receptor) [1] = molecular target: T1, APJ (Apelin receptor) (Homo sapiens, UniProt P35414); assay: BRET-based cAMP biosensor (CAMYEL) assay; format: cell-based
T1 sequence (P35414 1-380): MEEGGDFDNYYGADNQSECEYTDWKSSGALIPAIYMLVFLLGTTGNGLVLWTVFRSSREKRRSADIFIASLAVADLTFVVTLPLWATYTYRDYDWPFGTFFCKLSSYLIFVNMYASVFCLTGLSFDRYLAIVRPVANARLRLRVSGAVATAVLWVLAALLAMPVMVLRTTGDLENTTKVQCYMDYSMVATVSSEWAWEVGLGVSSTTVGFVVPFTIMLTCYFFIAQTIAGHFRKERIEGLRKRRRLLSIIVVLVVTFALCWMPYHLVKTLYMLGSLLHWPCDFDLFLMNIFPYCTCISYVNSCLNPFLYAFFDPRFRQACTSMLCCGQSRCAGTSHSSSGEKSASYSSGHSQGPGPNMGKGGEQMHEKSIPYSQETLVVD
Experimental: The cAMP concentration was measured using a BRET-based cAMP biosensor ([Barak et al., 2008]; [Ji et al., 2017]) in HEK293 cells transiently co-expressing YFP-Epac-RLuc and APJ. The sensor is composed of an N-terminal truncated variant of EPAC tagged with Rluc and YFP at N-terminal and C-terminal, respectively. […] At 24 h after transfection, cells were digested and plated into a 96-well microplate for 24 h following adding the substrate coelenterazine H into the medium at the final concentration of 5 µM and the nonspecific phosphodiesterase inhibitor IBMX (40 μM) for 20 min, and the cells were stimulated for 10 min with forskolin (10 μM).
(A) A schematic diagram of YFP-cAMP-Rluc fusion expression vector. […] Data represent mean ± SEM from four independent experiments (Supplementary Table S1).
(§1) The concentration-response data for the ligands in various assays were analyzed to determine the biases of the ligands for G protein dependent signaling or β-arrestin dependent signaling, according to a previously published method ([Kenakin et al., 2012]; [Hager et al., 2016]; [Hothersall et al., 2017]). Briefly, the concentration-response data for each ligand were fitted to the Black–Leff operation model to obtain the values of τ and K A, using the following equation: Response=[A]^nτ^nEm/[A]^nτ^n+([A]KA)^n where [A] is the concentration of the agonist, E m is the maximal response of the system, n is the transducer slope, and K A and τ describe the affinity and efficacy of the agonist, respectively. In the data fitting, the reparametrized form of the equation proposed by [Kenakin et al. (2012)] was used: Response=Em/1+exp{nln[1+exp(β1)/[A]]−nβ2} where β 1 and β 2 are the natural logarithm of K A and τ, respectively, and E m was set to 1. Thus, for each concentration-response curve, a non-linear regression was performed to fit the above equation to give β 1 and β 2 (as well as n). Log (τ/K A) values (“transduction coefficients”) for each ligand vs. each pathway were obtained. […] The ΔΔlog (τ/K A), or Log (Bias), which is the logarithm of the bias factor for a given pathway over a reference pathway (here, intracellular calcium release), was calculated for each ligand as Δlog (τ/K A)–Δlog (τ/K A)Calcium. The 95% confidence interval (CI) was expressed as the mean ± standard error; Log (Bias) values, whose 95% CI crosses 0, were considered statistically insignificant.
(§2) The data were analyzed using GraphPad Prism v5.0. All the data are presented as the mean ± SEM. Differences between groups were compared by one-way analysis of variants (ANOVA), followed by post-hoc tests (Tukey’s test), When p < 0.05, the difference was considered significant. All experiments were repeated at least four times. The dose-response curves were generated using non-linear fitting model log (agonist) vs. response (three-parameters), with Hill Slope held to 1, i.e., Y = Bottom + (Top-Bottom)/(1 + 10^(LogEC50-X)).
P<0.05 was considered as statistically significant. Control group (HG, Cells were stimulated with high glucose (Glucose Concentration: 4500 mg/L, HEPES, No Phenol Red). Data represent mean ± SEM from four independent experiments. Statistical analysis (Table S1)

APJ (Apelin receptor) [2] = molecular target: T1, APJ (Apelin receptor); assay: Intracellular calcium assay (Fluo-4 NW); format: cell-based
Experimental: HEK293 cells stably expressing APJ were plated at 10^4 cells per well in 96-well black microplates pretreated with a 0.1 mg/ml solution of poly-D-lysine for 24 h. Calcium fluorescence signals in cells were measured using the Fluo-4 NW calcium assay kit (Thermo Fisher Scientific) according to the manufacturer’s instructions ([Chen et al., 2014]; [Wang et al., 2017]). Before detection, cells were washed twice with assay buffer (1 × HBSS, 20 mM HEPES). One hundred microlitres of the dye loading solution was added to each well of a 96-well plate. Cells were incubated at 37°C in 5% CO2 humidified atmosphere for 30 min, then at room temperature for an additional 30 min. Cells were stimulated with six ligands (100 nM) for 5 min, then calcium signals were immediately measured on a Mithras LB940 plate reader (Berthold Technologies, Bad Wildbad, Germany) with an excitation wavelength of 485 nm and an emission wavelength of 525 nm. Dose response curve: cells were stimulated with different concentrations of six peptides for 30 s, and calcium fluorescence was detected. The calculation of the calcium fluorescence ratio was described previously ([Chen et al., 2014]).
as §1, §2
HEK293 cells stably expressed APJ, and in 30 s, the dose response curve stimulated with six peptides was measured. Data represent mean ± SEM from four independent experiments (Supplementary Table S2). With six peptides (B) stimulation, the dose-response curve of GRK2 recruited to APJ was measured by BRET (at 15 min). p < 0.05 was considered as statistically significant. Data represent mean ± SEM from four independent experiments (Supplementary Table S3).
P<0.05 was considered as statistically significant. Control group (HG, Cells were stimulated with high glucose).

[3] = Ca2+ (reference pathway), reference ligand Apelin-13

CSCC[C@H](NC(=O)[C@@H]1CSSC[C@H](NC(=O)[C@H](CC(N)=O)NC(=O)[C@H](Cc2c[nH]cn2)NC(=O)[C@H](CCCCN)NC(=O)[C@H](CCCNC(=N)N)NC(=O)[C@@H](N)CC(C)C)C(=O)N[C@@H](CC(C)C)C(=O)N[C@@H](CCC(N)=O)C(=O)N[C@@H](CCCNC(=N)N)C(=O)N[C@@H](CCCNC(=N)N)C(=O)N1)C(=O)N1CCC[C@H]1C(=O)N[C@@H](CC(C)C)C(=O)N[C@@H](Cc1c[nH]cn1)C(=O)N[C@@H](CO)C(=O)N[C@@H](CCCNC(=N)N)C(=O)N[C@H](C(=O)N1CCC[C@H]1C(=O)N[C@@H](Cc1ccccc1)C(=O)N1CCC[C@H]1C(=O)O)C(C)C [Elabela-21]
P vs HG, cAMP production (APJ (Apelin receptor) [1]; 0.001 nM): P>0.05 | P vs HG, cAMP production (APJ (Apelin receptor) [1]; 0.01 nM): P>0.05 | P vs HG, cAMP production (APJ (Apelin receptor) [1]; 0.1 nM): P>0.05 | P vs HG, cAMP production (APJ (Apelin receptor) [1]; 1 nM): ^**P<0.01 | P vs HG, cAMP production (APJ (Apelin receptor) [1]; 10 nM): ^***P<0.001 | P vs HG, cAMP production (APJ (Apelin receptor) [1]; 100 nM): ^***P<0.001 | P vs HG, cAMP production (APJ (Apelin receptor) [1]; 1000 nM): ^***P<0.001 | Bias factor (APJ (Apelin receptor) [1]; cAMP over Ca2+, reference Apelin-13): 38.0 | Log (Bias) (APJ (Apelin receptor) [1]; cAMP over Ca2+, reference Apelin-13, footnote a = statistically insignificant): 1.6 ± 0.3 | bias over calcium release (APJ (Apelin receptor) [1]; cAMP pathway): 38 fold | log (τ/KA) (APJ (Apelin receptor) [1]; cAMP, Black–Leff operational model): −0.1 ± 0.1 | Δlog (τ/KA) (APJ (Apelin receptor) [1]; cAMP, relative to Apelin-13): 0.0 ± 0.2 | P vs HG, intracellular calcium (APJ (Apelin receptor) [2]; 0.001 nM): P>0.05 | P vs HG, intracellular calcium (APJ (Apelin receptor) [2]; 0.01 nM): P>0.05 | P vs HG, intracellular calcium (APJ (Apelin receptor) [2]; 0.1 nM): P>0.05 | P vs HG, intracellular calcium (APJ (Apelin receptor) [2]; 1 nM): P>0.05 | P vs HG, intracellular calcium (APJ (Apelin receptor) [2]; 10 nM): ^*P<0.05 | P vs HG, intracellular calcium (APJ (Apelin receptor) [2]; 100 nM): ^***P<0.001 | P vs HG, intracellular calcium (APJ (Apelin receptor) [2]; 1000 nM): ^***P<0.001 | Bias factor (APJ (Apelin receptor) [2]; [3]): 1.0 | Log (Bias) (APJ (Apelin receptor) [2]; [3]): 0.0 | log (τ/KA) (APJ (Apelin receptor) [2]; Ca2+ pathway, Black–Leff operational model): −1.8 | Δlog (τ/KA) (APJ (Apelin receptor) [2]; Ca2+ pathway, relative to Apelin-13): −1.6
